Test results published in ChEMBL document CHEMBL6120969, “Distinctive Immune Signatures Driven by Structural Alterations in Desmuramylpeptide NOD2 Agonists” (J Med Chem, 2024).
Activity calls are given as the source filed them. The rule behind the calls is not given here.

How the values were obtained:
[1] = Cytotoxicity against human HEK-Blue hNOD2 cells assessed as metabolic activity at 10 uM incubated for 18 hes by MTT assay; format: toxicity, cell-based; conditions: hek-blue hnod2, 10 µM
PBMC [2] = test: Immunomodulatory activity in human PBMC cells assessed as increase in LPS-induced MCP-1 level at 2 uM incubated for 18 hrs y flow cytometry analysis; format: functional, cell-based
How it was run: (§1)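 For the cytokine readout, cell-free supernatants were assayed by flow cytometry with the LEGENDplex Human Essential Immune Response Panel and quantified against the kit's recombinant standard curves. These supernatants were collected from Ficoll-Paque-isolated human donor PBMCs that had been stimulated with LPS (10 ng/mL) in the presence of compounds at 2 μM or 0.1% DMSO for 18 h at 37 °C, 5% CO2. Statistics used two-way ANOVA with Tukey's test across four independent replicates.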

PBMC [3] = test: Immunomodulatory activity in human PBMC cells assessed as increase in LPS-induced IP-10 level at 2 uM incubated for 18 hrs y flow cytometry analysis; format: functional, cell-based; how it was run: as §1
PBMC [4] = test: Immunomodulatory activity in human PBMC cells assessed as increase in IL-6 level at 2 uM incubated for 18 hrs y flow cytometry analysis; format: functional, cell-based
How it was run: (§2)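 Cytokine levels in cell-free supernatants were measured by flow cytometry using the LEGENDplex Human Essential Immune Response Panel and the kit's recombinant standard curves. The supernatants came from human donor PBMCs (1 × 10^6 cells/mL) kept for 18 h at 37 °C, 5% CO2 with 2 μM compound or 0.1% DMSO vehicle, with no LPS added. Four independent replicates were compared by two-way ANOVA followed by Tukey's test.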

PBMC [5] = test: Cytotoxicity against human PBMC cells co-cultured with human K562 cells at 10 uM incubated for 4 hrs; format: functional, cell-based
How it was run: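 After 18 h pretreatment with compounds at 10 μM (vehicle 0.1% DMSO), human PBMCs (4 × 10^5/well, 96-well) were cocultured for 4 h at 37 °C, 5% CO2 with CFSE-stained K562 cells at an effector:target ratio of 40:1 (1 × 10^4/well). Target cell killing was measured by flow cytometry on an Attune NxT as CFSE+ Sytox blue+ K562 cells.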

PBMC [6] = test: Immunomodulatory activity in human PBMC cells assessed as increase in IL-8 level at 2 uM incubated for 18 hrs y flow cytometry analysis; format: functional, cell-based; how it was run: as §2
PBMC [7] = test: Immunomodulatory activity in human PBMC cells assessed as increase in LPS-induced TNF-alpha level at 2 uM incubated for 18 hrs y flow cytometry analysis; format: functional, cell-based
PBMC [8] = test: Immunomodulatory activity in human PBMC cells assessed as increase in LPS-induced IL-12p70 level at 2 uM incubated for 18 hrs y flow cytometry analysis; format: functional, cell-based
PBMC [9] = test: Immunomodulatory activity in human PBMC cells assessed as increase in TNF-alpha level at 2 uM incubated for 18 hrs y flow cytometry analysis; format: functional, cell-based; how it was run: as §2
PBMC [10] = test: Immunomodulatory activity in human PBMC cells assessed as increase in IL-2 level at 2 uM incubated for 18 hrs y flow cytometry analysis; format: functional, cell-based; how it was run: as §2
PBMC [11] = test: Immunomodulatory activity in human PBMC cells assessed as increase in IL-12p70 level at 2 uM incubated for 18 hrs y flow cytometry analysis; format: functional, cell-based; how it was run: as §2
[12] = Cytotoxicity against human PBMC cells at 10 uM incubated for 4 hrs in presence of MDP; format: toxicity, cell-based
PBMC [13] = test: Immunomodulatory activity in human PBMC cells assessed as increase in LPS-induced IL-10 level at 2 uM incubated for 18 hrs y flow cytometry analysis; format: functional, cell-based; how it was run: as §1
[14] = Cytotoxicity against human PBMC cells at 10 uM incubated for 4 hrs; format: toxicity, cell-based
How it was run: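 Alongside a K562 killing assay, human PBMCs on their own received compounds at 10 μM in 0.1% DMSO vehicle. After Sytox blue dead cell staining, the cells were acquired on an Attune NxT flow cytometer and analysed with FlowJo. Sytox blue-positive cells served as the readout of direct cytotoxicity. Duplicates were run in three independent biological replicates, and statistics used one-way ANOVA followed by Dunnett's test.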

PBMC [15] = test: Immunomodulatory activity in human PBMC cells assessed as increase in IL-10 level at 2 uM incubated for 18 hrs y flow cytometry analysis; format: functional, cell-based; how it was run: as §2
PBMC [16] = test: Immunomodulatory activity in human PBMC cells assessed as increase in IL-4 level at 2 uM incubated for 18 hrs y flow cytometry analysis; format: functional, cell-based; how it was run: as §2
PBMC [17] = test: Immunomodulatory activity in human PBMC cells assessed as increase in IL-17A level at 2 uM incubated for 18 hrs y flow cytometry analysis; format: functional, cell-based; how it was run: as §2
PBMC [18] = test: Immunomodulatory activity in human PBMC cells assessed as increase in IL-1beta level at 2 uM incubated for 18 hrs y flow cytometry analysis; format: functional, cell-based; how it was run: as §2
PBMC [19] = test: Immunomodulatory activity in human PBMC cells assessed as increase in LPS-induced IL-6 level at 2 uM incubated for 18 hrs y flow cytometry analysis; format: functional, cell-based; how it was run: as §1
PBMC [20] = test: Immunomodulatory activity in human PBMC cells assessed as increase in IP-10 level at 2 uM incubated for 18 hrs y flow cytometry analysis; format: functional, cell-based; how it was run: as §2
PBMC [21] = test: Immunomodulatory activity in human PBMC cells assessed as increase in IFN-gamma level at 2 uM incubated for 18 hrs y flow cytometry analysis; format: functional, cell-based; how it was run: as §2
PBMC [22] = test: Immunomodulatory activity in human PBMC cells assessed as increase in MCP-1 level at 2 uM incubated for 18 hrs y flow cytometry analysis; format: functional, cell-based; how it was run: as §2
PBMC [23] = test: Immunomodulatory activity in human PBMC cells assessed as increase in LPS-induced IL-1beta level at 2 uM incubated for 18 hrs y flow cytometry analysis; format: functional, cell-based
PBMC [24] = test: Immunomodulatory activity in human PBMC cells assessed as increase in LPS-induced IFN-gamma level at 2 uM incubated for 18 hrs y flow cytometry analysis; format: functional, cell-based
PBMC [25] = test: Immunomodulatory activity in human PBMC cells assessed as increase in TGF-beta1 level at 2 uM incubated for 18 hrs y flow cytometry analysis; format: functional, cell-based; how it was run: as §2

In the case of CCCCCCCCCCCCCCCCCC(=O)Oc1ccc(/C=C/C(=O)NCC(=O)N[C@H](C(=O)N[C@H](CCC(=O)OCC)C(=O)OCC)C(C)C)cc1OC, the Activity [1] is reported as “Non-toxic”.
In the case of CCOC(=O)[C@@H](CCC(=O)NCCCNCCCCNCCCN)NC(=O)[C@@H](NC(=O)CNC(=O)/C=C/c1ccc(O)c(OC)c1)C(C)C, the Activity (PBMC [2]) is reported as “Active”, the Activity (PBMC [3]) is reported as “Active” and the Activity (PBMC [4]) is reported as “Active”. The Activity (PBMC [5]) was “inactive”, the Activity (PBMC [6]) was “Active” and the Activity (PBMC [7]) was “Active”. For the same molecule, the Activity (PBMC [8]) was “Active”, the Activity (PBMC [9]) was “Active” and the Activity (PBMC [10]) was “Active”. The Activity [1] was “Non-toxic”, the Activity (PBMC [11]) was “Active” and the Activity [12] was “Non-toxic”. For the same molecule, the Activity (PBMC [13]) was “Active”, the Activity [14] was “Non-toxic” and the Activity (PBMC [15]) was “Active”. The Activity (PBMC [16]) was “Active”, the Activity (PBMC [17]) was “Active” and the Activity (PBMC [18]) was “Active”. The Activity (PBMC [19]) was “Active”, the Activity (PBMC [20]) was “Active” and the Activity (PBMC [21]) was “Active”. The Activity (PBMC [22]) was “Active”, the Activity (PBMC [23]) was “Active” and the Activity (PBMC [24]) was “Active”. For the same molecule, the Activity (PBMC [25]) was “Active”.
With CCCCC/C=C\C/C=C\CCCCCCCC(=O)Oc1ccc(/C=C/C(=O)NCC(=O)N[C@H](C(=O)N[C@H](CCC(=O)OCC)C(=O)OCC)C(C)C)cc1OC the Activity [1] was “Non-toxic”.
For CCOC(=O)CC[C@@H](NC(=O)[C@@H](NC(=O)CNC(=O)/C=C/c1ccc(OC(=O)CCCCCCCCCCCCCO)c(OC)c1)C(C)C)C(=O)OCC, the Activity [1] was “Non-toxic”.
For CCCCCC(C)C(=O)Oc1ccc(/C=C/C(=O)NCC(=O)N[C@H](C(=O)N[C@H](CCC(=O)OCC)C(=O)OCC)C(C)C)cc1OC (stereo partly specified), the Activity [1] was “Non-toxic”.
For CCCCC(CC)C(=O)Oc1ccc(/C=C/C(=O)NCC(=O)N[C@H](C(=O)N[C@H](CCC(=O)OCC)C(=O)OCC)C(C)C)cc1OC (stereo partly specified), the Activity [1] was “Non-toxic”.
With CCCCC(CCCC)C(=O)Oc1ccc(/C=C/C(=O)NCC(=O)N[C@H](C(=O)N[C@H](CCC(=O)OCC)C(=O)OCC)C(C)C)cc1OC the Activity [1] was “Non-toxic”.
With CC/C=C\C/C=C\C/C=C\C/C=C\C/C=C\C/C=C\CCC(=O)Oc1ccc(/C=C/C(=O)NCC(=O)N[C@H](C(=O)N[C@H](CCC(=O)OCC)C(=O)OCC)C(C)C)cc1OC the Activity [1] was “Non-toxic”.
With CCCCCCCCCCCCCC(=O)Oc1ccc(/C=C/C(=O)NCC(=O)N[C@H](C(=O)N[C@H](CCC(=O)OCC)C(=O)OCC)C(C)C)cc1OC the Activity [1] was “Non-toxic”.
For CCCCCCCC(=O)Oc1ccc(/C=C/C(=O)NCC(=O)N[C@H](C(=O)N[C@H](CCC(=O)OCC)C(=O)OCC)C(C)C)cc1OC, the Activity [1] was “Non-toxic”.
With CCOC(=O)[C@@H](CCC(=O)OCCN1CCOCC1)NC(=O)[C@@H](NC(=O)CNC(=O)/C=C/c1ccc(O)c(OC)c1)C(C)C the Activity [1] was “Non-toxic”.
In the case of CCCCCC(CCCCC)C(=O)Oc1ccc(/C=C/C(=O)NCC(=O)N[C@H](C(=O)N[C@H](CCC(=O)OCC)C(=O)OCC)C(C)C)cc1OC, the Activity [1] is reported as “Non-toxic”.
With CCOC(=O)CC[C@@H](NC(=O)[C@@H](NC(=O)CNC(=O)/C=C/c1cc(OC)c(O)c(OC)c1)C(C)C)C(=O)OCC the Activity [1] was “Non-toxic”.
In the case of CCCCCCCCCC(=O)Oc1ccc(/C=C/C(=O)NCC(=O)N[C@H](C(=O)N[C@H](CCC(=O)OCC)C(=O)OCC)C(C)C)cc1OC, the Activity [1] is reported as “Non-toxic”.
In the case of CCOC(=O)CC[C@@H](NC(=O)[C@@H](NC(=O)CNC(=O)/C=C/c1ccc(OC(=O)CCCC2CCCCC2)c(OC)c1)C(C)C)C(=O)OCC, the Activity [1] is reported as “Non-toxic”.
In the case of CCCCCCCCCCCC(=O)Oc1ccc(/C=C/C(=O)NCC(=O)N[C@H](C(=O)N[C@H](CCC(=O)OCC)C(=O)OCC)C(C)C)cc1OC, the Activity (PBMC [2]) is reported as “Active”, the Activity (PBMC [3]) is reported as “Active” and the Activity (PBMC [4]) is reported as “Active”. The Activity (PBMC [5]) was “inactive”, the Activity (PBMC [6]) was “Active” and the Activity (PBMC [7]) was “Active”. The Activity (PBMC [8]) was “Active”, the Activity (PBMC [9]) was “Active” and the Activity (PBMC [10]) was “Active”. For the same molecule, the Activity (PBMC [11]) was “Active”, the Activity (PBMC [13]) was “Active” and the Activity [14] was “Non-toxic”. For the same molecule, the Activity (PBMC [15]) was “Active”, the Activity (PBMC [16]) was “Active” and the Activity (PBMC [17]) was “Active”. The Activity (PBMC [18]) was “Active”, the Activity (PBMC [19]) was “Active” and the Activity (PBMC [20]) was “Active”. The Activity (PBMC [21]) was “Active”, the Activity (PBMC [22]) was “Active” and the Activity (PBMC [23]) was “Active”. For the same molecule, the Activity (PBMC [24]) was “Active” and the Activity (PBMC [25]) was “Active”.
With CCCCCCC(CC)C(=O)Oc1ccc(/C=C/C(=O)NCC(=O)N[C@H](C(=O)N[C@H](CCC(=O)OCC)C(=O)OCC)C(C)C)cc1OC (stereo partly specified) the Activity [1] was “Non-toxic”.
In the case of CCOC(=O)[C@@H](CCC(=O)NCCCNCCCCN)NC(=O)[C@@H](NC(=O)CNC(=O)/C=C/c1ccc(O)c(OC)c1)C(C)C, the Activity [1] is reported as “Non-toxic”.
In the case of CCOC(=O)[C@@H](CCC(=O)NCCCCN)NC(=O)[C@@H](NC(=O)CNC(=O)/C=C/c1ccc(O)c(OC)c1)C(C)C, the Activity [1] is reported as “Non-toxic”.
With CCCCCC(CCC)C(=O)Oc1ccc(/C=C/C(=O)NCC(=O)N[C@H](C(=O)N[C@H](CCC(=O)OCC)C(=O)OCC)C(C)C)cc1OC (stereo partly specified) the Activity [1] was “Non-toxic”.
With CCCCCC(=O)Oc1ccc(/C=C/C(=O)NCC(=O)N[C@H](C(=O)N[C@H](CCC(=O)OCC)C(=O)OCC)C(C)C)cc1OC the Activity [1] was “Non-toxic”.
With CCCCCCCCCCCCCCCC(=O)Oc1ccc(/C=C/C(=O)NCC(=O)N[C@H](C(=O)N[C@H](CCC(=O)OCC)C(=O)OCC)C(C)C)cc1OC the Activity [1] was “Non-toxic”.
In the case of CCCCCCCC/C=C\CCCCCCCC(=O)Oc1ccc(/C=C/C(=O)NCC(=O)N[C@H](C(=O)N[C@H](CCC(=O)OCC)C(=O)OCC)C(C)C)cc1OC, the Activity [1] is reported as “Non-toxic”.
With CC/C=C\C/C=C\C/C=C\CCCCCCCC(=O)Oc1ccc(/C=C/C(=O)NCC(=O)N[C@H](C(=O)N[C@H](CCC(=O)OCC)C(=O)OCC)C(C)C)cc1OC the Activity [1] was “Non-toxic”.
For CCCCC/C=C\C/C=C\C/C=C\CCCCC(=O)Oc1ccc(/C=C/C(=O)NCC(=O)N[C@H](C(=O)N[C@H](CCC(=O)OCC)C(=O)OCC)C(C)C)cc1OC, the Activity [1] was “Non-toxic”.
